In patent US8969554B2, “6-acyl-1,2,4-triazine-3,5-dione derivative and herbicides” (Kumiai Chemical Industry Co., Ltd., priority 2010, dated 2015):

Columns and labels:
Format in all cases: in vivo
Echinochloa crus-galli [1] = test: Herbicidal activity by field foliage treatment (Test example 3); parameters: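 index 0 to 10 in 10% steps of herbicidal effect with 10 meaning complete death and 0 below 10%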; details: 1000 g effective component per hectare, day 14 after the treatment
Description: (§1) Test example 3 Test for Determining Herbicidal Activity by Field Foliage Treatment A 80 cm^2 wide plastic pot was filled with a field soil and seeds of each of Indian millet and A. retroflexus were sowed and then incubated for 2 weeks in a green house. The wettable powder produced with reference to the Formulation example 1 was diluted water, and applied from the air to entire body of the plant as foliage treatment by using a small sprayer in an amount of 1000 liters per hectare so that the effective component is 1000 g per hectare. After that, the plants were cultivated in a greenhouse, and on day 14 after the treatment, evaluation was made by the criteria described in Table 72 for determining the herbicidal effects.

Setaria viridis = test: as above; details: 1000 g effective component per hectare, day 14 after the treatment;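 further: index 0 to 10 in 10% steps of herbicidal effect with 10 meaning complete death and 0 below 10%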
Description: as §1

Indian millet [2] = test: as above; parameters: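 index 0 to 10 in 10% steps of herbicidal effect with 10 meaning complete death and 0 below 10%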; details: 1000 g effective component per hectare, day 14 after the treatment
How it was run: (§2)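 Field soil in pots; Indian millet and A. retroflexus grown 2 weeks in greenhouse, then sprayed over whole plant with water-diluted wettable powder at 1000 L/ha, giving 1000 g active component/ha. Herbicidal effect scored by set criteria on day 14 after treatment.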

A. retroflexus [3] = test: as above; parameters: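 index 0 to 10 in 10% steps of herbicidal effect with 10 meaning complete death and 0 below 10%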; details: 1000 g effective component per hectare, day 14 after the treatment
How it was run: as §2

Echinochloa oryzicola = test: Herbicidal activity by paddy field soil treatment (Test Example 1); parameters: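 index 0 to 10 in 10% steps of herbicidal effect with 10 meaning complete death and 0 below 10%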; details: 1000 g of effective component per hectare, evaluated on day 21 after the treatment, criteria of Table 72
How it was run: (§3)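 Paddy soil in pots sown with seeds, flooded to 3 cm; next day wettable powder diluted in water applied to water surface at 1000 g active ingredient/ha. Greenhouse-grown; herbicidal effect scored on day 21 after treatment against rating criteria.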

Scirpus juncoides Rocxb. = test: as above; parameters: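 index 0 to 10 in 10% steps of herbicidal effect with 10 meaning complete death and 0 below 10%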; details: applied on water surface, 1000 g of effective component per hectare, day 21 after the treatment
How it was run: as §3

Monochoria vaginalis = test: as above; parameters: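 index 0 to 10 in 10% steps of herbicidal effect with 10 meaning complete death and 0 below 10%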; details: 1000 g of effective component per hectare, evaluated on day 21 after the treatment, criteria of Table 72
How it was run: as §3

A. retroflexus [4] = test: Herbicidal activity by field soil treatment (Test example 2); parameters: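 index 0 to 10 in 10% steps of herbicidal effect with 10 meaning complete death and 0 below 10%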; details: 1000 g effective component per hectare, day 21 after the treatment
Description: (§4) [table] Test for Determining Herbicidal Activity by Field Soil Treatment A 80 cm^2 wide plastic pot was filled with a field soil and seeds of each of Echinochloa crus-galli, foxtail, Indian millet, and A. retroflexus were sowed and then covered with soil. The wettable powder produced with reference to the Formulation example 1 was diluted water, and applied on the soil surface by using a small sprayer in an amount of 1000 liters per hectare so that the effective component is 1000 g per hectare. After that, the plants were cultivated in a greenhouse, and on day 21 after the treatment, evaluation was made by the criteria described in Table 72 for determining the herbicidal effects.

Echinochloa crus-galli [5] = test: as above; parameters: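 index 0 to 10 in 10% steps of herbicidal effect with 10 meaning complete death and 0 below 10%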; details: 1000 g effective component per hectare, day 21 after the treatment
Description: as §4

Indian millet [6] = test: as above; parameters: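 index 0 to 10 in 10% steps of herbicidal effect with 10 meaning complete death and 0 below 10%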; details: 1000 g effective component per hectare, day 21 after the treatment
Description: as §4

SMILES	herbicidal effect index, Echinochloa crus-galli (Echinochloa crus-galli [1])	herbicidal effect index, Setaria viridis (Setaria viridis)	herbicidal effect index, Abutilon theophrasti (Indian millet [2])	herbicidal effect index, Amaranthus retroflexus (A. retroflexus [3])	Herbicidal effects index number, Echinochloa oryzicola (Echinochloa oryzicola)	herbicidal effect index, S. juncoides Rocxb. (Scirpus juncoides Rocxb.)	Herbicidal effects index number, Monochoria vaginalis (Monochoria vaginalis)	herbicidal effect index, Amaranthus retroflexus (A. retroflexus [4])	herbicidal effect index, Echinochloa crus-galli (Echinochloa crus-galli [5])	herbicidal effect index, Abutilon theophrasti (Indian millet [6])
CC(=O)Cn1c(=O)c(C(=O)C2=C(O)CCCC2=O)nn(C)c1=O [I-328]	7	7	10	10	10	10	10			
COc1cc(-n2c(=O)c(C(=O)C3=C(O)CCCC3=O)nn(C)c2=S)cc(OC)c1OC [I-464]		7	10	10	10	10	10	7		
COc1ccc(-n2c(=O)c(C(=O)C3=C(O)CCCC3=O)nn(C)c2=O)cc1Cl [I-119]	9		9	10	9	10	10	10	8	9
Cn1nc(C(=O)C2=C(O)CCCC2=O)c(=O)n(-c2cccs2)c1=O [I-198]	10		10	10	8	10	10	10	7	10
CN(c1ccc(F)cc1)n1c(=O)c(C(=O)C2=C(O)CCCC2=O)nn(C)c1=O [I-476]	7		9	10	10	10	10	10	7	10
COc1ccc(-n2c(=O)c(C(=O)C3=C(O)CCCC3=O)nn(C)c2=O)cn1 [I-287]	8		9	10	10	10	10	10	10	9
Cc1cc(F)cc(-n2c(=O)c(C(=O)C3=C(O)CCCC3=O)nn(C)c2=O)c1 [I-106]	10		9	10	10	10	10	10	10	10
Cn1nc(C(=O)C2=C(O)CCCC2=O)c(=O)n(-c2cccc(C(F)(F)F)c2)c1=O [I-64]	10		10	10	10	10	10	10	10	10
Cc1cc(-n2c(=O)c(C(=O)C3=C(O)CCCC3=O)nn(C)c2=O)ccc1F [I-115]	10		10	10	10	10	10	9	9	9
Cc1cccc(-n2c(=O)c(C(=O)C3=C(O)CCCC3=O)nn(C)c2=O)c1F [I-107]	7		9	10	10	10	10	10	8	10
Cc1cc(-n2c(=O)c(C(=O)C3=C(O)CCCC3=O)nn(C)c2=O)ccc1Cl [I-135]	10		10	10	10	10	10	10	9	9
Cn1nc(C(=O)C2=C(O)CCCC2=O)c(=O)n(CC2CCCO2)c1=O (centres unmarked) [I-339]	9		10	10	10	10	10	10	8	10
COc1cc(OC)nc(-n2c(=O)c(C(=O)C3=C(O)CCCC3=O)nn(C)c2=O)n1 [I-273]	10		9	10	9	10	9	10	9	7
CCN(c1ccccc1)n1c(=O)c(C(=O)O)nn(C)c1=O [V-368]	7		9	9	10	10	10	10	7	10
COc1ccc(-n2c(=O)c(C(=O)C3=C(O)CCCC3=O)nn(C)c2=O)cc1C [I-149]	8		10	10	9	10	10	10	8	10
Cc1ccc(-n2c(=O)c(C(=O)C3=C(O)CCCC3=O)nn(C)c2=O)cc1Cl [I-125]	10		10	10	10	10	10	10	7	8
CCN(c1ccccc1)n1c(=O)c(C(=O)C2=C(O)CCCC2=O)nn(C)c1=O [I-474]	7		9	9	10	10	10	10	7	10
